The text below walks through data of patent publication US12447153B2, “HER2 mutation inhibitors” (Array BioPharma Inc., priority 2021, dated 2025).

Usually IC50 stands for the concentration at which inhibition is half-maximal. Low values mean higher potency, high ones lower potency.

Each structure is given as a SMILES string. A value given as a limit tells only on which side of the number the result lay.

The target in data set [1] is BCRP (Homo sapiens (Human), UniProt Q9UNQ0). Nature of the data set: BCRP MDCKII efflux assay (Assay 7). The following applies: dog; efflux ratio Papp(B-A)/Papp(A-B), BCRP MDCKII cells; read-out: Assay 7 Pe Ratio. It is filed as in vitro ADME. The procedure:
Assay conditions included with and without the BCRP-specific inhibitor, KO143, at a concentration of 0.3 μM to ascertain the contribution of BCRP to the efflux value of the test compound.
Final organic concentration in the assay was 1%.

Data set [2] addresses EGFR (Homo sapiens (Human), UniProt P00533). Nature of the data set: ErbB Enzyme Assay (HTRF KinEASE-TK), Assay 3. It is filed as biochemical. For orientation: In TR-FRET formats the signal depends on donor and acceptor labels being close together.
In data set [3] the target is MDR1 (P-gp) (Homo sapiens (Human), UniProt P08183). Kind of data set: in vitro. The following applies: pig, LLC-PK1.
MDR1 (P-gp), sequence (P08183 whole entry): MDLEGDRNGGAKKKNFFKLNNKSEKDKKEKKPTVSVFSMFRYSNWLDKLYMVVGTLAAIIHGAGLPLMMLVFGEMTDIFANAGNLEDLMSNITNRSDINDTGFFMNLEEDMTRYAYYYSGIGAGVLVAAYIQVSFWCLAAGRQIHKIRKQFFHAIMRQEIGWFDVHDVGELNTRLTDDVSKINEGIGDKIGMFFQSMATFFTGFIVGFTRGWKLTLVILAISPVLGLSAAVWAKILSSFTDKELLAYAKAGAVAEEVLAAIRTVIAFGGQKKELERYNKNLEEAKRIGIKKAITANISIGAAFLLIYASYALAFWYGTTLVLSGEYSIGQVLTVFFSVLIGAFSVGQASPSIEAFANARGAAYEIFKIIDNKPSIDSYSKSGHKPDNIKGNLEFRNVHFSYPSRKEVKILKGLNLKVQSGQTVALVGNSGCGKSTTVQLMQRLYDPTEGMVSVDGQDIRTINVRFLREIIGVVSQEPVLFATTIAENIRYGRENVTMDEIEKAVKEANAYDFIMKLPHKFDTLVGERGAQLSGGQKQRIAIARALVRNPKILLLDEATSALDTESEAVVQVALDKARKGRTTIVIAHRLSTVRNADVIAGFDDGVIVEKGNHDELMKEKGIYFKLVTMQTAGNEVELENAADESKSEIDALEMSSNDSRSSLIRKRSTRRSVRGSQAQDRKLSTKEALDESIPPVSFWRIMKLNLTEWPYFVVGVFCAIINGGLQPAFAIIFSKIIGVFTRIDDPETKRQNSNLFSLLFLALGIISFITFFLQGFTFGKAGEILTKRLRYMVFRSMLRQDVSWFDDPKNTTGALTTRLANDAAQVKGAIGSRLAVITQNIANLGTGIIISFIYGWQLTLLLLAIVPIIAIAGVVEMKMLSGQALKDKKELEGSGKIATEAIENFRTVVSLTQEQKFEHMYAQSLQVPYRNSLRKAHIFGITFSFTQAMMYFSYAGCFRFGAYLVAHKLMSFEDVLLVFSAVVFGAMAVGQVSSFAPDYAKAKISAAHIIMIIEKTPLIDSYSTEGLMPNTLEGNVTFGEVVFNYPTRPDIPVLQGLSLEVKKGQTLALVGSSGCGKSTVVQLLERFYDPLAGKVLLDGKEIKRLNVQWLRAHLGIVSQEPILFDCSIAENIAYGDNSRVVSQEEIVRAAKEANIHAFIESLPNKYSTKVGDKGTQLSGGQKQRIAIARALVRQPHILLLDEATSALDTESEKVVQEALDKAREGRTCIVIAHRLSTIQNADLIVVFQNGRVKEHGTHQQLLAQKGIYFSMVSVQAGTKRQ
Protocol: Both LLC-PK1 and MDR1 transfected LLC-PK1 cells were cultured and plated according to manufacturer's recommendations with the exception that the passage media contained only 2% fetal bovine serum so as to extend passage time out to seven days.
Both positive and negative controls were used to assess functionality of P-gp or BCRP efflux in the assays. Stock solutions for assay controls and the test article were prepared in DMSO for final test concentrations of 10 μM and 1 μM, respectively. Final organic concentration in the assay was 1%. All dosing solutions contained 10 μM lucifer yellow to monitor LLC PK1 or MDCKII cell monolayer integrity.
For the apical to basolateral determination (A to B), 75 μL of the test article in transport buffer were added to the apical side of the individual transwells and 250 μL of basolateral media, without compound or lucifer yellow, were added to each well. For the basolateral to apical determination (B to A), 250 μL of test article in transport buffer were added to each well and 75 μL transport buffer, without compound or lucifer yellow, were added to each transwell. All tests were performed in triplicate, and each compound was tested for both apical to basolateral and basolateral to apical transport. The plates were incubated for 2 hours on a Lab-Line Instruments Titer Orbital Shaker (VWR, West Chester, PA) at 50 rpm and 37° C. with 5% CO2. All culture plates were removed from the incubator, 50 μL of media were removed from the apical and basolateral portion of each well, and added to 150 μL of 1 μM labetalol in 2:1 acetonitrile (ACN): H2O, v/v.
The plates were read using a Molecular Devices (Sunnyvale, CA) Gemini Fluorometer to evaluate the lucifer yellow concentrations at excitation/emission wavelengths of 425/535 nm. These values were accepted when found to be below 2% for apical to basolateral and 5% basolateral to apical flux across the MDR1-transfected LLC-PK1 or BCRP-transfected MDCKII cell monolayers. The plates were sealed, and the contents of each well analyzed by LC MS/MS. The compound concentrations were determined from the ratio of the peak areas of the compound to the internal standard (labetalol) in comparison to the dosing solution.
The LC-MS/MS system was comprised of an HTS-PAL autosampler (Leap Technologies, Carrboro, NC), an HP1200 HPLC (Agilent, Palo Alto, CA), and a MDS Sciex 4000 Q Trap system (Applied Biosystems, Foster City, CA). […] The total run time, including re-equilibration, for a single injection was 1.2 minutes. Mass spectrometric detection of the analytes was accomplished using the ion spray positive mode. Analyte responses were measured by multiple reaction monitoring (MRM) of transitions unique to each compound (the protonated precursor ion and selected product ions for each test article and m/z 329 to m/z 162 for labetalol, the internal standard).
An efflux ratio is calculated from the mean apical to basolateral (A-B) Papp data and basolateral to apical (B-A) Papp data: Efflux ratio=Papp(B−A)/Papp(A−B)
The target in data set [4] is ErbB2 with Exon 20 YVMA insertion (HER2-YVMA) (Homo sapiens (Human), UniProt P04626, INS775YVMA). Nature of the data set: Cellular Phosphorylation Assay, Assay 4 (constitutive ErbB2 phosphorylation, NIH 3T3 cells). It is filed as cell-based.
ErbB2 with Exon 20 YVMA insertion (HER2-YVMA), sequence (P04626 other isoform, or with tags, fused parts or gaps ins YVMA behind 775): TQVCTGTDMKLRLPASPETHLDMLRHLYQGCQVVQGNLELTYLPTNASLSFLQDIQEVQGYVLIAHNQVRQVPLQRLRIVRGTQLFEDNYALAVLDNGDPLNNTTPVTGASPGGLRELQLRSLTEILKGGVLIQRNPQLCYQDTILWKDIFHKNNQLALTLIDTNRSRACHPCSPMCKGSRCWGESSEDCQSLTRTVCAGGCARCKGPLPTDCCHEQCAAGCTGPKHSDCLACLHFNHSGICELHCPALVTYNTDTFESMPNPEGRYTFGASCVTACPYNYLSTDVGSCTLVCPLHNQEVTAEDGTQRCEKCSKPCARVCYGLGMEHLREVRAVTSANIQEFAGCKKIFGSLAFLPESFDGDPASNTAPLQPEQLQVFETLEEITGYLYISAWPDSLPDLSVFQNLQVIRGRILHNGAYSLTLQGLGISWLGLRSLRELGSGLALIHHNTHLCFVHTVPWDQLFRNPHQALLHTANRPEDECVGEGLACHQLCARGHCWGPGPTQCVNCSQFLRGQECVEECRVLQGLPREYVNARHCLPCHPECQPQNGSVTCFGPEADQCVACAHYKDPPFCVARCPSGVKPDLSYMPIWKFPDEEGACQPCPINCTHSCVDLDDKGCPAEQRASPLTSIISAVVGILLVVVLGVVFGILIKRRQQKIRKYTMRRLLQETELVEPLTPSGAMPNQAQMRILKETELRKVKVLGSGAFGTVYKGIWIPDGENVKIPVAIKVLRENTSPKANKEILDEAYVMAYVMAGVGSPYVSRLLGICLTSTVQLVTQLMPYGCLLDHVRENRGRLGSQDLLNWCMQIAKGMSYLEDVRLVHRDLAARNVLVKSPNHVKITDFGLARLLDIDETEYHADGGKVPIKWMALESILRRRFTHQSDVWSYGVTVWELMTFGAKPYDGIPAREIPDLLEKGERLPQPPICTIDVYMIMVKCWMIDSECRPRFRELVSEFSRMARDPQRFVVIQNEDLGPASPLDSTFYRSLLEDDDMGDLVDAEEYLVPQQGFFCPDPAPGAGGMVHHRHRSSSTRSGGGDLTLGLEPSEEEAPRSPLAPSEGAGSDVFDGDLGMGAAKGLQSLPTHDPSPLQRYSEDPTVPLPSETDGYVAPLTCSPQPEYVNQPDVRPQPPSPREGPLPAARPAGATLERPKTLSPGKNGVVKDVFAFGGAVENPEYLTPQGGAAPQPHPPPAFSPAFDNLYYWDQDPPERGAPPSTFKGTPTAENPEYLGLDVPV
The target in data set [5] is EGFR wild type (EGFR WT) (Homo sapiens (Human), UniProt P00533). Nature of the data set: Cellular Phosphorylation Assay, Assay 5 (EGF-stimulated EGFR phosphorylation, NIH 3T3 cells). It is filed as cell-based.
EGFR wild type (EGFR WT), sequence (P00533 25-1210): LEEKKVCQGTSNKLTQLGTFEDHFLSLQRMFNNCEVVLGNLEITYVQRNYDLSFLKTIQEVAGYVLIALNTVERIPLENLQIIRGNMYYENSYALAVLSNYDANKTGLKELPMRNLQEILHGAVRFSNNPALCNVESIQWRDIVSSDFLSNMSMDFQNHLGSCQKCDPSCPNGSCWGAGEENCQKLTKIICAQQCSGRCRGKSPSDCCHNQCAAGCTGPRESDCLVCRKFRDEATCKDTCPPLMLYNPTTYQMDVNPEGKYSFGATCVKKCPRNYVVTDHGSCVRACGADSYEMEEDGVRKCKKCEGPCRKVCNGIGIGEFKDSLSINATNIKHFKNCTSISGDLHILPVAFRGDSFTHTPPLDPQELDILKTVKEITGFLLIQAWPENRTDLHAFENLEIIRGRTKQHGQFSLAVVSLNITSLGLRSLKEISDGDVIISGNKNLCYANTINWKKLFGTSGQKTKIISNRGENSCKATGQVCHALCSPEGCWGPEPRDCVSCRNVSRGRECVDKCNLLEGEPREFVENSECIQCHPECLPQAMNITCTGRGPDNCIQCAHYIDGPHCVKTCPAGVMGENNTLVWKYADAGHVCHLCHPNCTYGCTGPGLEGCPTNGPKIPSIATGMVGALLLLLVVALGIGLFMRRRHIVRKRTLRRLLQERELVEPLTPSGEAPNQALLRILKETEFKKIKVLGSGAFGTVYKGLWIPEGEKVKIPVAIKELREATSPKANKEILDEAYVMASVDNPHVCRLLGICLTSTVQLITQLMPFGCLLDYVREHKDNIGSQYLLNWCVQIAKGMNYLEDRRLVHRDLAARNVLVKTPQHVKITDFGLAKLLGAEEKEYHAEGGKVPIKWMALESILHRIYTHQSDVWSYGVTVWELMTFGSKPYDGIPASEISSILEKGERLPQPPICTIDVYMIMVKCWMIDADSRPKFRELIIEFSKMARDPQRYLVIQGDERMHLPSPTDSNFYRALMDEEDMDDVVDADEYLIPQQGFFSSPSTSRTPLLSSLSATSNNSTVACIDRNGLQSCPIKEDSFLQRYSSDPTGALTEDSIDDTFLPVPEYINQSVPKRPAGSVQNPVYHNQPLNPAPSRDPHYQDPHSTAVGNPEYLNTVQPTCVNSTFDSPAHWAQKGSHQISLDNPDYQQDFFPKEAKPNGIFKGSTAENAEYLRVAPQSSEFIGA
Data set [6] concerns the target ErbB2 WT (Homo sapiens (Human), UniProt P04626). Kind of data set: ErbB Enzyme Assay (HTRF KinEASE-TK), Assay 2. It is filed as biochemical.
Where [7] appears, read: EGF-stimulated EGFR WT phosphorylation.
Setting [8] is: cellular ErbB2 YVMA phosphorylation.
The mark [9] stands for this setting: cellular EGFR WT phosphorylation, EGF-stimulated.

BCRP, sequence (Q9UNQ0 whole entry): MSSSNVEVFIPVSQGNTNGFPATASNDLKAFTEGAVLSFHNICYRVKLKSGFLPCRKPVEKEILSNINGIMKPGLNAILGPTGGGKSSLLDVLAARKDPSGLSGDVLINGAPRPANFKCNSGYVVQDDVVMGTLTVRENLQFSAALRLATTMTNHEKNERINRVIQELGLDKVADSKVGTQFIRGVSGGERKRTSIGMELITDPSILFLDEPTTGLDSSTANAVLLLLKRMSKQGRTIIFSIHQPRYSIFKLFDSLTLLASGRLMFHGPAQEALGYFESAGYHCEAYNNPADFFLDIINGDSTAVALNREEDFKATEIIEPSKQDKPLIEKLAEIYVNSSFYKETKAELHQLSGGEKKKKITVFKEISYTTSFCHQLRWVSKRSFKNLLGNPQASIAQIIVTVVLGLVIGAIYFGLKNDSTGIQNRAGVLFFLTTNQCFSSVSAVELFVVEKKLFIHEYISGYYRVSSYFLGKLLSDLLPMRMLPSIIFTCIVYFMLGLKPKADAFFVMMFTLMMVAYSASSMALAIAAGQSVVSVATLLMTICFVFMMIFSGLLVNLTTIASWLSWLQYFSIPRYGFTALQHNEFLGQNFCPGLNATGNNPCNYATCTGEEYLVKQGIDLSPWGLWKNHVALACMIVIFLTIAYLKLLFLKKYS

As to `C=CC(=O)N1CCN(c2ccc3ncnc(Nc4ccc(Oc5cnc6c(c5)ncn6C)c(C)c4F)c3n2)CC1(C)C` [Example 247, 1-(4-(4-((2-fluoro-3-methyl-4-((3-methyl-3H-imidazo[4,5-b]pyridin-6-yl)oxy)phenyl)amino)pyrido[3,2-d]pyrimidin-6-yl)-2,2-dimethylpiperazin-1-yl)prop-2-en-1-one], the efflux ratio at 2 h, 1 µM turned out to be 1.9 in data set [1] and 0.8 in data set [3]. Further, the IC50 in data set [2] (EGFR enzyme) is not below 10000 nM; in data set [4] (ErbB2 YVMA phosphorylation) it was 8.9 nM; in data set [5] (setting [7]), not below 5000 nM; in data set [6] (ErbB2 WT enzyme), 71.5 nM.

As for `C=CC(=O)N1C[C@@H]2C[C@H]1CN(c1ccc3ncnc(Nc4ccc(Oc5ccc6c(c5)ncn6C)c(C)c4F)c3n1)C2` [Example 109, 1-((1R,5S)-3-(4-((2-fluoro-3-methyl-4-((1-methyl-1H-benzo[d]imidazol-5-yl)oxy)phenyl)amino)pyrido[3,2-d]pyrimidin-6-yl)-3,6-diazabicyclo[3.2.1]octan-6-yl)prop-2-en-1-one], the efflux ratio at 2 h, 1 µM in data set [1] and in data set [3] was 2 in each case. Besides, the 50% inhibitory concentration (IC50) in data set [2] (EGFR enzyme) was not below 10000 nM; in data set [4] (ErbB2 YVMA phosphorylation), 13.4 nM; in data set [5] (setting [7]), not below 5000 nM; in data set [6] (ErbB2 WT enzyme), 282 nM.

On to `C=CC(=O)N1CCC(Sc2ccc3ncnc(Nc4ccc(Oc5ccc6c(c5)ncn6C)c(C)c4F)c3n2)CC1` [Example 28, 1-(4-((4-((2-fluoro-3-methyl-4-((1-methyl-1H-benzo[d]imidazol-5-yl)oxy)phenyl)amino)pyrido[3,2-d]pyrimidin-6-yl)thio)piperidin-1-yl)prop-2-en-1-one], for which the values for the efflux ratio at 2 h, 1 µM in data set [1] and in data set [3] were 5.2 and 2, respectively. The IC50 in data set [2] (EGFR enzyme) was not below 10000 nM; in data set [4] (ErbB2 YVMA phosphorylation) it was 26.4 nM; in data set [5] (setting [7]), not below 5000 nM; in data set [6] (ErbB2 WT enzyme) it was 275 nM.

Consider `C=CC(=O)N1C[C@H]2C[C@@H]1[C@H](c1ccc3ncnc(Nc4ccc(Oc5ccc6c(c5)ncn6C)c(C)c4F)c3n1)C2` (racemic) [Example 202, rac-1-((1R,4R,6R)-6-(4-((2-fluoro-3-methyl-4-((1-methyl-1H-benzo[d]imidazol-5-yl)oxy)phenyl)amino)pyrido[3,2-d]pyrimidin-6-yl)-2-azabicyclo[2.2.1]heptan-2-yl)prop-2-en-1-one], for which the figures for the efflux ratio at 2 h, 1 µM in data set [1] and in data set [3] were 2.8 and 1.2, respectively. Also, the IC50 in data set [2] (EGFR enzyme) stood at 550 nM; in data set [4] (ErbB2 YVMA phosphorylation), 20.6 nM; in data set [5] (setting [7]), 4220 nM; in data set [6] (ErbB2 WT enzyme), 15.5 nM.

For `C=CC(=O)N1CCN(c2ccc3ncnc(Nc4ccc(Oc5cnc6c(c5)ncn6C)c(C)c4F)c3n2)C[C@H]1C1CC1` [Example 165, (R)-1-(2-cyclopropyl-4-(4-((2-fluoro-3-methyl-4-((3-methyl-3H-imidazo[4,5-b]pyridin-6-yl)oxy)phenyl)amino)pyrido[3,2-d]pyrimidin-6-yl)piperazin-1-yl)prop-2-en-1-one], the figures for the efflux ratio at 2 h, 1 µM in data set [1] and in data set [3] were 1.6 and 0.9, respectively. Further, the IC50 was not below 10000 nM in data set [2] (EGFR enzyme), 15.8 nM in data set [4] (ErbB2 YVMA phosphorylation), not below 5000 nM in data set [5] (setting [7]) and 177 nM in data set [6] (ErbB2 WT enzyme).

Regarding `C=CC(=O)N1CCC(Sc2ccc3ncnc(Nc4cc(C)c(Oc5ccc6c(c5)ncn6C)cc4F)c3n2)CC1` [Example 64, 1-(4-((4-((2-fluoro-5-methyl-4-((1-methyl-1H-benzo[d]imidazol-5-yl)oxy)phenyl)amino)pyrido[3,2-d]pyrimidin-6-yl)thio)piperidin-1-yl)prop-2-en-1-one], the efflux ratio at 2 h, 1 µM worked out at 4.2 in data set [1] and 2.4 in data set [3]. In addition, the half-inhibitory concentration (IC50) in data set [2] (EGFR enzyme) is not below 10000 nM; in data set [4] (ErbB2 YVMA phosphorylation), 32.9 nM; in data set [5] (setting [7]), not below 5000 nM; in data set [6] (ErbB2 WT enzyme) it was 37.4 nM.

On to `C=CC(=O)N1C[C@H](c2ccc3ncnc(Nc4ccc(Oc5ccc6c(c5)ncn6C)c(C)c4F)c3n2)CCC1(C)C` (racemic) [Example 36, 1-(5-(4-((2-fluoro-3-methyl-4-((1-methyl-1H-benzo[d]imidazol-5-yl)oxy)phenyl)amino)pyrido[3,2-d]pyrimidin-6-yl)-2,2-dimethylpiperidin-1-yl)prop-2-en-1-one], for which the values for the efflux ratio at 2 h, 1 µM in data set [1] and in data set [3] were 4.2 and 0.8, respectively. Also, the IC50 was not below 10000 nM in data set [2] (EGFR enzyme), 18.9 nM in data set [4] (ErbB2 YVMA phosphorylation), 1700 nM in data set [5] (setting [7]) and 105 nM in data set [6] (ErbB2 WT enzyme).

Regarding `C=CC(=O)N1CCN(c2ccc3ncnc(Nc4cc(C)c(Oc5ccn6ncnc6c5)cc4F)c3n2)C[C@@H]1CC` [Example 290], the efflux ratio at 2 h, 1 µM turned out to be 4.8 in data set [1] and 1.5 in data set [3]. Also, the IC50 in data set [2] (EGFR enzyme assay) is 8710 nM; in data set [4] (setting [8]), 38.5 nM; in data set [5] (setting [9]), not below 5000 nM; in data set [6] (ErbB2 WT enzyme assay), 53.6 nM.

In the case of `C=CC(=O)N1C[C@H]2CC[C@@H](C1)[C@@H]2c1ccc2ncnc(Nc3cc(C)c(Oc4ccn5ncnc5c4)cc3F)c2n1` [Example 222, 1-((1R,5S,8r)-8-(4-((4-([1,2,4]triazolo[1,5-a]pyridin-7-yloxy)-2-fluoro-5-methylphenyl)amino)pyrido[3,2-d]pyrimidin-6-yl)-3-azabicyclo[3.2.1]octan-3-yl)prop-2-en-1-one], the efflux ratio at 2 h, 1 µM in data set [1] was determined as 1.4; in data set [3], 1.3. The IC50 in data set [2] (EGFR enzyme) is 5830 nM; in data set [4] (ErbB2 YVMA phosphorylation) it was 309 nM; in data set [5] (setting [7]), not below 5000 nM; in data set [6] (ErbB2 WT enzyme), 133 nM.

On to `C=CC(=O)N1CC[C@@H](c2ccc3ncnc(Nc4ccc(Oc5ccn6ncnc6c5)c(C)c4F)c3n2)CC12CC2` (single isomer, unassigned) [Example 173], for which the efflux ratio at 2 h, 1 µM turned out to be 3 in data set [1] and 0.7 in data set [3]. Besides, the IC50 in data set [2] (EGFR enzyme) was not below 10000 nM; in data set [4] (ErbB2 YVMA phosphorylation), 21 nM; in data set [5] (setting [7]), 2310 nM; in data set [6] (ErbB2 WT enzyme), 105 nM.

For `C=CC(=O)N1CCC(Oc2ccc3ncnc(Nc4ccc(Oc5ccn6ncnc6c5)c(C)c4)c3n2)CC1` [Example 1, 1-(4-((4-((4-([1,2,4]triazolo[1,5-a]pyridin-7-yloxy)-3-methylphenyl)amino)pyrido[3,2-d]pyrimidin-6-yl)oxy)piperidin-1-yl)prop-2-en-1-one], the efflux ratio at 2 h, 1 µM in data set [1] was found to be 7.3; in data set [3] it was 11.4. The concentration for half-maximal inhibition (IC50) in data set [2] (EGFR enzyme) was determined as 4430 nM; in data set [4] (ErbB2 YVMA phosphorylation) it was 12.5 nM; in data set [5] (setting [7]), 1010 nM; in data set [6] (ErbB2 WT enzyme), 33.6 nM.

On to `C=CC(=O)N1CC[C@@H]2C[C@H]1CN2c1ccc2ncnc(Nc3cc(C)c(Oc4ccn5ncnc5c4)cc3F)c2n1` [Example 332], for which the efflux ratio at 2 h, 1 µM in data set [1] is 3.2; in data set [3] it was 1.2. The IC50 in data set [2] (EGFR enzyme assay) turned out to be 196 nM; in data set [4] (setting [8]), 5.9 nM; in data set [5] (setting [9]), 341 nM; in data set [6] (ErbB2 WT enzyme assay) it was 10.9 nM.

As for `C=CC(=O)N1C[C@H]2C[C@@H]1CN(c1ccc3ncnc(Nc4cc(Cl)c(Oc5ccc6c(c5)ncn6C)cc4F)c3n1)C2` [Example 107, 1-((1S,5R)-3-(4-((5-chloro-2-fluoro-4-((1-methyl-1H-benzo[d]imidazol-5-yl)oxy)phenyl)amino)pyrido[3,2-d]pyrimidin-6-yl)-3,6-diazabicyclo[3.2.1]octan-6-yl)prop-2-en-1-one], the efflux ratio at 2 h, 1 µM in data set [1] amounted to 2.7; in data set [3], 1.6. Further, the IC50 in data set [2] (EGFR enzyme) was not below 10000 nM; in data set [4] (ErbB2 YVMA phosphorylation), 17.8 nM; in data set [5] (setting [7]), not below 5000 nM; in data set [6] (ErbB2 WT enzyme), 237 nM.

Turning to `C=CC(=O)N1[C@@H]2CC[C@H]1[C@H](c1ccc3ncnc(Nc4ccc(Oc5ccc6c(c5)ncn6C)c(C)c4F)c3n1)C2` [Example 394], the efflux ratio at 2 h, 1 µM turned out to be 1.8 in data set [1] and 2.6 in data set [3]. Besides, the half-maximal inhibitory concentration (IC50) in data set [2] (EGFR enzyme assay) was 252 nM; in data set [4] (setting [8]), 10.7 nM; in data set [5] (setting [9]), not below 5000 nM; in data set [6] (ErbB2 WT enzyme assay) it was 11.4 nM.

`C=CC(=O)N1CCC(Oc2ccc3ncnc(Nc4ccc(Oc5ccn6ncnc6c5)c(Cl)c4F)c3n2)CC1` [Example 13, 1-(4-((4-((4-([1,2,4]triazolo[1,5-a]pyridin-7-yloxy)-3-chloro-2-fluorophenyl)amino)pyrido[3,2-d]pyrimidin-6-yl)oxy)piperidin-1-yl)prop-2-en-1-one]: the results for the efflux ratio at 2 h, 1 µM in data set [1] and in data set [3] were 1.4 and 1.2, respectively. Besides, the IC50 in data set [2] (EGFR enzyme) is 220 nM; in data set [4] (ErbB2 YVMA phosphorylation) it was 4 nM; in data set [5] (setting [7]) it was 104 nM; in data set [6] (ErbB2 WT enzyme) it was 8.4 nM.

As to `C=CC(=O)N1[C@@H]2CC[C@H]1CC(c1ccc3ncnc(Nc4ccc(Oc5ccc6c(c5)ncn6C)c(C)c4F)c3n1)C2` (mixture of isomers) [Example 143, rac-1-((1R,5S)-3-(4-((2-fluoro-3-methyl-4-((1-methyl-1H-benzo[d]imidazol-5-yl)oxy)phenyl)amino)pyrido[3,2-d]pyrimidin-6-yl)-8-azabicyclo[3.2.1]octan-8-yl)prop-2-en-1-one], the efflux ratio at 2 h, 1 µM in data set [1] came to 3; in data set [3], 1.7. In addition, the IC50 in data set [2] (EGFR enzyme) amounted to 1850 nM; in data set [4] (ErbB2 YVMA phosphorylation), 20.9 nM; in data set [5] (setting [7]) it was 2940 nM; in data set [6] (ErbB2 WT enzyme), 32.7 nM.
